Measured values reported in PMC6801562, “PIEZO1 and TRPV4, which Are Distinct Mechano-Sensors in the Osteoblastic MC3T3-E1 Cells, Modify Cell-Proliferation” (International Journal of Molecular Sciences, 2019).

Legend:
TRPV4 (MC3T3-E1 cells) = biological target: T1, TRPV4 (MC3T3-E1 cells) (Mus musculus, UniProt Q9EPK8); test: Fura-2 Ca2+ imaging, MC3T3-E1 cells, Hill fit; assay type: cell-based; conditions: agonist; native cells; pH 7.4, 2.2 mM Ca2+, n = 7
T1 construct: native full-length channel in mouse osteoblastic MC3T3-E1 cells (Riken Cell Bank); identity supported by siTRPV4 knockdown

[1] = biological target: T2, mouse PIEZO1 (mPIEZO1; HEK-mPiezo1) (Mus musculus, UniProt E2JF22); test: Fura-2 Ca2+ imaging, HEK cells, Hill fit; assay type: cell-based
T2 construct: mouse Piezo1 (Addgene) in pcDNA3.1 / pIRES2-AcGFP1, transiently transfected in HEK 293 cells; low endogenous human PIEZO1 in host
T2 sequence (E2JF22 whole entry): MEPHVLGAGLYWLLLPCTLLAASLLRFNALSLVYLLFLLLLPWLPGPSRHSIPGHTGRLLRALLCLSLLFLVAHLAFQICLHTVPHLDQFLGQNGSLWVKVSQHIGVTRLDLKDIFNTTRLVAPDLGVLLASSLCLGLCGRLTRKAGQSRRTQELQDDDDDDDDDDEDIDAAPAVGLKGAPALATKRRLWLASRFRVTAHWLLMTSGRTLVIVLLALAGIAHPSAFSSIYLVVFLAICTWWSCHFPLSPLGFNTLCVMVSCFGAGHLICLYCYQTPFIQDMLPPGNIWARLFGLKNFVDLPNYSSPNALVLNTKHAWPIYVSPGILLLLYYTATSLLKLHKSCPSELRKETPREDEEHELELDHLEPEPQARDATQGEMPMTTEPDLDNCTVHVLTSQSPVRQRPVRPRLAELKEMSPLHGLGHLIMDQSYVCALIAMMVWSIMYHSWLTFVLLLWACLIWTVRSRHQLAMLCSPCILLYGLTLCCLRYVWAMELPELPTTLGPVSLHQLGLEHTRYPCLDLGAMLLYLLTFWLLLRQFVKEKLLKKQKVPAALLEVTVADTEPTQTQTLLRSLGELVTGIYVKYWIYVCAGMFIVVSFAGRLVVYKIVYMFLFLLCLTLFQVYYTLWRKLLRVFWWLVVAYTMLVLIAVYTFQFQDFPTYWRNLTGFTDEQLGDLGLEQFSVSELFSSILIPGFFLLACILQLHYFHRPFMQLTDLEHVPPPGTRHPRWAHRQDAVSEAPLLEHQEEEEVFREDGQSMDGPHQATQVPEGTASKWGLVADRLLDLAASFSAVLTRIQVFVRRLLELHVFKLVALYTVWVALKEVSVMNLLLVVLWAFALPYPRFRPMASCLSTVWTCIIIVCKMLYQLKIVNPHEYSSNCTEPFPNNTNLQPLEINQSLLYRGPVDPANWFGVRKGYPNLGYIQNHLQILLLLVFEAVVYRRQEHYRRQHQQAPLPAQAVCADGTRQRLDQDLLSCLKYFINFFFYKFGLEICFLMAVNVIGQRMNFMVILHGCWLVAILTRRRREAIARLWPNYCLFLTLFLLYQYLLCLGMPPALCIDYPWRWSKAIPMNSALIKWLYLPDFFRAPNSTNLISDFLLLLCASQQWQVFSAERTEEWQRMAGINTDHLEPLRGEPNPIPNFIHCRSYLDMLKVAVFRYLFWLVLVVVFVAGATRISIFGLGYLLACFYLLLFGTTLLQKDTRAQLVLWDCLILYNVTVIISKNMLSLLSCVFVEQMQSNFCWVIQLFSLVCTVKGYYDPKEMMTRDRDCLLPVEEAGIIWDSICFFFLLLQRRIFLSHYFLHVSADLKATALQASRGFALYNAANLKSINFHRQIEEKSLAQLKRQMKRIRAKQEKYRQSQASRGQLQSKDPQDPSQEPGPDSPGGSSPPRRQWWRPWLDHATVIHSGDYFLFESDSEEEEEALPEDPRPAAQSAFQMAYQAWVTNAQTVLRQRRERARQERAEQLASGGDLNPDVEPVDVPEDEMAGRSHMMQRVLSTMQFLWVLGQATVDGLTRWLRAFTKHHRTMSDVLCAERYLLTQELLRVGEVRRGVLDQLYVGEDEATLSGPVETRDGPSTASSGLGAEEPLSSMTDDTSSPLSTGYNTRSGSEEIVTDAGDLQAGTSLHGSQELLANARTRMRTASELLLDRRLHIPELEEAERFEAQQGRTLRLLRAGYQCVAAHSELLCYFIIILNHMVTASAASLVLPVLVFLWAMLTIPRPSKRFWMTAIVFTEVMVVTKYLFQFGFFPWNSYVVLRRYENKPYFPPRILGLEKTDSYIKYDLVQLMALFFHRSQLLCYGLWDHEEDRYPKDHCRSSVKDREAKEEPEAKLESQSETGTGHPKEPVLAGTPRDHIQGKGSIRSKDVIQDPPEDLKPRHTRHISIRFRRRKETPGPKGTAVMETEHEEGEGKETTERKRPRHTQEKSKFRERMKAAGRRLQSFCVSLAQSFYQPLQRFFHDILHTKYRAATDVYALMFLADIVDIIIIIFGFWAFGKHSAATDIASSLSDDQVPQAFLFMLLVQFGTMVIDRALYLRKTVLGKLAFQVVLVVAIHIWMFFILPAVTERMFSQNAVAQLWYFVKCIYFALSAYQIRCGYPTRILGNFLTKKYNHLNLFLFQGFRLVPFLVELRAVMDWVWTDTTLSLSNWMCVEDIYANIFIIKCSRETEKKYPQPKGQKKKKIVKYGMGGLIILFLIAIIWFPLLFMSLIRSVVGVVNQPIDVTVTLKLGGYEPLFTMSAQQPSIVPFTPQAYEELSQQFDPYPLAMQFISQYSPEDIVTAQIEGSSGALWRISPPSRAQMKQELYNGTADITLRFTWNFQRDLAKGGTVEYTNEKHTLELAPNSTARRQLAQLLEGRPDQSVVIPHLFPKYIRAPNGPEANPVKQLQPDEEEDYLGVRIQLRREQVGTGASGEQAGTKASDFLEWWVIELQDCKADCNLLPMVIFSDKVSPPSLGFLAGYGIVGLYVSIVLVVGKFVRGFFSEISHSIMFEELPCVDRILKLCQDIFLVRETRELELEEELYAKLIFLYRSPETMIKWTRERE

T1 sequence (Q9EPK8 whole entry): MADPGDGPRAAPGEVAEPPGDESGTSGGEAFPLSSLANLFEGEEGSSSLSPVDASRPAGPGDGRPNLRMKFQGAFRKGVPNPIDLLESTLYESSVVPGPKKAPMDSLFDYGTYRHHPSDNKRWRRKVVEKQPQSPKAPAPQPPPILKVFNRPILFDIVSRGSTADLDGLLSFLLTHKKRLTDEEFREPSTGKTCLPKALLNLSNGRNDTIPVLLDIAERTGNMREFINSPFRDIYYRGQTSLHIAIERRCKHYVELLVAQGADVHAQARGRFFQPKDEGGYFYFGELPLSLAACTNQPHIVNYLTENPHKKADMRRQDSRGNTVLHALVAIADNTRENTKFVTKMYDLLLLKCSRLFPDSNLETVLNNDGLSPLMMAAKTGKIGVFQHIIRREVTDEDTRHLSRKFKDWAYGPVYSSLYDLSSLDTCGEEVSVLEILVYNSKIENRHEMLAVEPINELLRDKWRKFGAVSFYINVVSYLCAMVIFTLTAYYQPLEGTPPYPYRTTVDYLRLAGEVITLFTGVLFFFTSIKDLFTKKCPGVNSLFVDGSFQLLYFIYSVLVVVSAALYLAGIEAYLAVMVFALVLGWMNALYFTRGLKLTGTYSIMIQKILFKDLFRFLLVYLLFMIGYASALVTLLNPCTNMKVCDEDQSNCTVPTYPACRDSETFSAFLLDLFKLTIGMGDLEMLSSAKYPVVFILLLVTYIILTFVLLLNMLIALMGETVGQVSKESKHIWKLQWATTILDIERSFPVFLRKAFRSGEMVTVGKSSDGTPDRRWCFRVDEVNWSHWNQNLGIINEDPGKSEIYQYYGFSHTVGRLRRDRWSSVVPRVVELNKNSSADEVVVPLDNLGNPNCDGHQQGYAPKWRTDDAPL

SMILES	EC50 (TRPV4 (MC3T3-E1 cells)) [µM]	EC50 [1] [µM]
CC(C)C[C@H](NC(=O)c1cc2ccccc2s1)C(=O)N1CCN(C(=O)[C@H](CO)NS(=O)(=O)c2ccc(Cl)cc2Cl)CC1 [GSK1016790A]	0.00225 ± 0.00045	
Clc1cccc(Cl)c1CSc1nnc(-c2cnccn2)s1 [Yoda1, 2-[5-[[(2,6-Dichlorophenyl)methyl]thio]-1,3,4-thiadiazol-2-yl]-pyrazine]		0.38 ± 0.07
